One series concerns MDA-MB-231 cells. Put plainly: Efficacy of DOX released from hydrogels (MTT, Annexin-PI FACS). In kind it is cell-based. The protocol: MDA-MB-231, breast cancer cell line was used for determining the efficacy of DOX release. To do so, MDA-MB-231 cells were grown on the DOX encapsulated hydrogels at a density of 2×10000 and cultured in complete DMEM media for 24 hrs. After 24 hrs, the cell morphology was imaged and the viability was then quantified using 3-(4,5-dimethylthiazol-2-yl)-2,5-diphenyl tetrazolium bromide (MTT) assay. FIG. 22A phase contrast images of MDA-MB-231 cells treated with DOX encapsulated hydrogels. […] For FACS analysis, MDAMB-231 cells were seeded on the hydrogel in the density 50,000 cells/well and allowed to grow for 24 hrs. Following the incubation, the cells were trypsinized and harvested in an eppendorf. The cell pellet was obtained by centrifugation and was resuspended in binding buffer. The percentage of apoptotic cells were measured by Annexin-PI staining method. 2 μl each of Annexin and PI was added to the resuspended cells and incubated for 5 mins before acquiring the results using FACS. […] To determine the efficacy of RA released from the hydrogel, SH-SY5Y neuroblastoma cells were seeded on hydrogel encapsulated with and without RA at a density of 1×10^4 and cultured in complete DMEM media. […] After 48 hrs, the morphology of these cells was analyzed by phase contrast images (FIG. 23A) and the cell shape was quantified by circularity using Image J software (FIG. 23C).

Series [1] can be described thus: MTT cytotoxicity assay of cells cultured on the hydrogels. Format: cell-based. To be noted: human, hydrogel 5 mg/ml peptide, 24 hours culture, read-out: cell viability. The method, then: To determine whether the functional amyloid hydrogel is non-toxic in nature, MTT (3-[4,5-dimethylthiazol-2-yl]-2,5 diphenyl tetrazolium bromide) assay was performed. The amyloid hydrogels were casted at a concentration of 5 mg/ml for each peptide and neuroblastoma, SH-SY5Y cells at a density of 10^4 were seeded and cultured on the hydrogels for 24 hours. The MTT reagent (0.5 mg/ml final concentration) was added to the cells after 24 hrs of culture and the cells were further incubated for 4 h. Finally, 100 μl of 50% N, N-dimethylformamide/20% sodium dodecyl sulfate solution was added, and the mixture was incubated overnight. The absorption was then measured at 560 nm with an automatic microtiter plate reader (Thermo Fisher Scientific, Waltham, MA, USA). FIG. 9 depicts the percentage of cell viability.

The subject of series [2] is STZ-induced diabetic rat model. Put plainly: Insulin delivery from hydrogels in diabetic rats. The protocol:
The functional amyloid hydrogel encapsulated with insulin (5 mg/ml) was administered subcutaneously to the diabetic rat model. Blood samples were collected from the tail veins of rats prior to drug administration and at different time intervals after dosing. Diabetes model rats were fasted for 12 h prior to and remained fasted during the experiment, but were allowed water ad libitum. The blood glucose level was checked biochemically at regular interval. The insulin released from the hydrogel in vivo was also monitored. To do that, blood samples were centrifuged (10,000 rpm, 4° C. for 15 min) and subsequently quantified using an appropriate insulin ELISA kit and during various time intervals.

The subject of series [3] is MCF7 spheroids. Briefly: MTT cytotoxicity of chemotherapeutic drugs on spheroids versus 2D culture. Format: cell-based. To be noted: 0-14 μM, 24 h. The method, then:
Cytotoxicity assays by MIT: MCF7 spheroids were cultured for five days in DMEM (Dulbecco's modified Eagle's medium) with 10% FBS, in a 5% CO2 incubator at 37° C. followed by treatment with different chemotherapeutics drugs (0-14 μM) for 24 h. For control, media containing buffer. After 24 h of incubation, 10 μl of MTT solution (5 mg/ml prepared in PBS) was added to each well and incubated for 4 h. Subsequently, 100 μl of SDS-DMF solution (50% DMF and 20% SDS, pH 4.75) were added and kept for overnight incubation. The absorption values at 560 nm and 690 nm (background absorbance) were determined using a SpectraMax M2e microplate reader (Molecular Devices, USA). The cell viability was plotted as percentage cell viability by considering 100% viability for the buffer control (FIG. 18 A).
Dense spheroids tended to show relative resistance to all these five chemotherapeutic drugs in the 3D-culture as compared to this resistance in 2D. […] These findings confirm that the formation of dense spheroids in 3D-culture plays a role in determining the sensitivity of the cell lines to these chemotherapeutic drugs. […] 3D, geometrical difference can have far-reaching impacts in terms of understanding physiological response.

Series [4] concerns MCF7 spheroids. Briefly: Fluorescence live/dead study of drug effect on 2D versus 3D. In kind it is cell-based. To be noted: 24 h. The protocol:
Fluorescence study was also performed to observe the effect of drug on 2D versus 3D. Here, after maturation of spheroids i.e., 5 days of culture on gel 4, different dose of paclitaxel (2-10 μM) was added for 24 h. To assess the effect of drug, cell viability was observed by staining through calcein AM and ethidium homodimer-1. Images were captured after incubation with dyes for 1 h. […] On the other hand, at the concentration of 4 μM, 70% of the cells for 2D are dead for the drug paclitaxel (FIG. 18 B).

Another series concerns SH-SY5Y cells. Briefly: Differentiation of cells on RA encapsulated hydrogels. To be noted: RA released from RA encapsulated hydrogels. In kind it is cell-based. The protocol: MDA-MB-231, breast cancer cell line was used for determining the efficacy of DOX release. To do so, MDA-MB-231 cells were grown on the DOX encapsulated hydrogels at a density of 2×10000 and cultured in complete DMEM media for 24 hrs. After 24 hrs, the cell morphology was imaged and the viability was then quantified using 3-(4,5-dimethylthiazol-2-yl)-2,5-diphenyl tetrazolium bromide (MTT) assay. FIG. 22A phase contrast images of MDA-MB-231 cells treated with DOX encapsulated hydrogels. […] For FACS analysis, MDAMB-231 cells were seeded on the hydrogel in the density 50,000 cells/well and allowed to grow for 24 hrs. Following the incubation, the cells were trypsinized and harvested in an eppendorf. The cell pellet was obtained by centrifugation and was resuspended in binding buffer. The percentage of apoptotic cells were measured by Annexin-PI staining method. 2 μl each of Annexin and PI was added to the resuspended cells and incubated for 5 mins before acquiring the results using FACS. […] After 48 hrs, the morphology of these cells was analyzed by phase contrast images (FIG. 23A) and the cell shape was quantified by circularity using Image J software (FIG. 23C).
The SH-SY5Y cells grown on hydrogel were immunostained with β-III tubulin (β-IIIT), a neuron specific marker to determine the efficacy of the released RA (FIG. 23B). […] The gene expression was analyzed by Real-time PCR technique.

Where a SMILES comes first, the peptide text is derived from it. The star is where a group is joined. Fmoc = O=C(OCC1c2ccccc2-c2ccccc21)* A value given as a limit tells only on which side of the number the result lay.

For `COc1cccc2c1C(=O)c1c(O)c3c(c(O)c1C2=O)C[C@@](O)(C(=O)CO)C[C@@H]3O[C@H]1C[C@H](N)[C@H](O)[C@H](C)O1` [DOX, doxorubicin], the “change in cell viability (FACS, Annexin-PI)” value in the series with MDA-MB-231 cells (DOX encapsulated in the hydrogels, 24 hrs) was “decrease in cell viability”. In the series with MDA-MB-231 cells (DOX released from DOX encapsulated hydrogels), the cancer cell death is given as around 70%.

Take `CC(C)C[C@H](NC(=O)[C@@H](NC(=O)[C@@H](NC(=O)[C@H](C)NC(=O)OCC1c2ccccc2-c2ccccc21)C(C)C)C(C)C)C(=O)N[C@@H](CO)C(=O)O` [FA3, AVVLS] (Fmoc-AVVLS-OH; N-terminus and C-terminus assumed): in series [1], the viability (as a rule, the share of living cells, or the viability signal relative to a control) at 24 h, 5000 µg/mL was above 80%. Still for that read-out and setting: then `CC[C@H](C)[C@H](NC(=O)[C@H](CCC(=O)O)NC(=O)[C@H](CCSC)NC(=O)[C@H](CC(C)C)NC(=O)[C@H](CCCCN)NC(=O)OCC1c2ccccc2-c2ccccc21)C(=O)O` [FA1, KLMEI] (Fmoc-KLMEI-OH; N-terminus and C-terminus assumed), with above 80%. insulin: the blood sugar level in series [2] (insulin encapsulated in the hydrogels, subcutaneously injected) is 100 to 120 mg/dL. Also, in series [2] (only insulin control), the “time blood glucose level maintained after administration” value is at most 6 h and the “time serum insulin level maintained after administration” value is at most 6 h. Turning to `O=c1[nH]cc(F)c(=O)[nH]1` [5FU], the “death in 3D” value in the series with MCF7 spheroids [3] was “more death in 3D as compared to other drugs”. Turning to `CC(=O)O[C@H]1C(=O)[C@@]2(C)[C@H]([C@H](OC(=O)c3ccccc3)[C@]3(O)C[C@H](OC(=O)[C@H](O)[C@@H](NC(=O)c4ccccc4)c4ccccc4)C(C)=C1C3(C)C)[C@]1(OC(C)=O)CO[C@@H]1C[C@@H]2O` [paclitaxel], the “cells dead in 2D” value in the series with MCF7 spheroids [4] (4 μM, calcein AM / ethidium homodimer-1) is listed as 70%. Further, the “resistance 3D versus 2D” value in the series with MCF7 spheroids [4] (2-10 μM, spheroids 5 days on gel 4) was 3D are more resistant than 2D.

For `CC[C@H](C)[C@H](NC(=O)[C@H](CC(=O)O)NC(=O)[C@H](CC(C)C)NC(=O)[C@H](CC(C)C)NC(=O)[C@H](CCCCN)NC(=O)OCC1c2ccccc2-c2ccccc21)C(=O)O` [FA2, KLLDI] (Fmoc-KLLDI-OH; N-terminus and C-terminus assumed), the viability at 24 h, 5000 µg/mL in series [1] is above 80%.

Turning to `CC1=C(/C=C/C(C)=C/C=C/C(C)=C/C(=O)O)C(C)(C)CCC1` [RA, trans-retinoic acid], the differentiation of cells entry in the series on SH-SY5Y cells is “induced differentiation of SH-SY5Y cells towards neuronal lineage”.

The record behind these values is patent publication US12318503B2, “Functional amyloid hydrogels and applications thereof” (Indian Institute of Technology Bombay, priority 2019, dated 2025).
